# Columns and labels:
# Glucocorticoid receptor [1] = molecular target: T1, Glucocorticoid receptor (Homo sapiens, UniProt P04150)
# T1 sequence (P04150 whole entry): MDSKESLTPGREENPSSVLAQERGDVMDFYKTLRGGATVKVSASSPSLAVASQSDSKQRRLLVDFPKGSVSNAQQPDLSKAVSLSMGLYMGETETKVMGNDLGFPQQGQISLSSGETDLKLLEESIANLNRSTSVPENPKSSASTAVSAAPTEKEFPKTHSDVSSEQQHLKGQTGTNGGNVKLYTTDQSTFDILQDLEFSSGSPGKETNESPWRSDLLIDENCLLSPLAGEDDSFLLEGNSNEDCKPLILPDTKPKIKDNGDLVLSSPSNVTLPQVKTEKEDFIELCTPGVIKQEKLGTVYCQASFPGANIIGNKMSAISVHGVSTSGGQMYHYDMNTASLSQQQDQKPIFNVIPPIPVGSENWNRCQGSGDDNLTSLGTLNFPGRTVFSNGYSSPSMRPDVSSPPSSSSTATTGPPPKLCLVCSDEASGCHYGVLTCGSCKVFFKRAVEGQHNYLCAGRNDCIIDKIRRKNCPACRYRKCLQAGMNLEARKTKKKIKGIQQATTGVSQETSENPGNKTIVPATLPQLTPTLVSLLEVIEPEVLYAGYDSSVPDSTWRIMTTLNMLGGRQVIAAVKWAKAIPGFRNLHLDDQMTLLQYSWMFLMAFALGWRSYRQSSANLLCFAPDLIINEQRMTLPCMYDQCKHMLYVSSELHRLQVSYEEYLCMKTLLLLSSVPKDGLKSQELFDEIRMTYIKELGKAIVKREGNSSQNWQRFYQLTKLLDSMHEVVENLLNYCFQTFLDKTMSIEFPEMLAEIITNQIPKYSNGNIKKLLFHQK
# Description: Binding affinity was determined for human glucocorticoid receptor(hGR).
# Progesterone receptor [2] = molecular target: T2, Progesterone receptor (Homo sapiens, UniProt P06401)
# T2 sequence (P06401 whole entry): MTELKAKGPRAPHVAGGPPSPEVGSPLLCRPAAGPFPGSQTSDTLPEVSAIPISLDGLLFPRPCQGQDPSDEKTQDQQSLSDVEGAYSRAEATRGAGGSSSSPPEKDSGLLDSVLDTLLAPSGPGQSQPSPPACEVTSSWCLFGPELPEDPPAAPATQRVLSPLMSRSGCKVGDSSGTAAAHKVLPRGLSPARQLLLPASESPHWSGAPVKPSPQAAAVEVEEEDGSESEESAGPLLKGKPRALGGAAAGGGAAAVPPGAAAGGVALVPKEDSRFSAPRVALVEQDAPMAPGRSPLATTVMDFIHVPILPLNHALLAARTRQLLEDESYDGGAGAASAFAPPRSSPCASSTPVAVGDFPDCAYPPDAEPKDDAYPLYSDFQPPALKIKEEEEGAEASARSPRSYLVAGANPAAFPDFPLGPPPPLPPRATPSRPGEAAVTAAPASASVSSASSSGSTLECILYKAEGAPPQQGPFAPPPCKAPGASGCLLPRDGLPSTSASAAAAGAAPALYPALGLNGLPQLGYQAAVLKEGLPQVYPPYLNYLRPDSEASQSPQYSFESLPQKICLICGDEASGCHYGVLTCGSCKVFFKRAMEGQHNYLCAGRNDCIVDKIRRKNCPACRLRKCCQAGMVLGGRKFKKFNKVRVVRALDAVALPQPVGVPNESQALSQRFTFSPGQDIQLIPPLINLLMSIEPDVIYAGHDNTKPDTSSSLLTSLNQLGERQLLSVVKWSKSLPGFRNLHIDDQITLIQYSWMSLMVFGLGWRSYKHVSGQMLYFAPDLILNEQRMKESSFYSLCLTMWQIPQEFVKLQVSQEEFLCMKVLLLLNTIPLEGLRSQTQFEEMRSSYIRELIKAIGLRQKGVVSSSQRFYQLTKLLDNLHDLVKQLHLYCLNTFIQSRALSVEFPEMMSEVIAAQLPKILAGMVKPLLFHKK
# Progesterone receptor [3] = molecular target: T2, Progesterone receptor; remark: listed apart in the source
# Androgen receptor [4] = molecular target: T3, Androgen receptor (Homo sapiens, UniProt P10275)
# T3 sequence (P10275 whole entry): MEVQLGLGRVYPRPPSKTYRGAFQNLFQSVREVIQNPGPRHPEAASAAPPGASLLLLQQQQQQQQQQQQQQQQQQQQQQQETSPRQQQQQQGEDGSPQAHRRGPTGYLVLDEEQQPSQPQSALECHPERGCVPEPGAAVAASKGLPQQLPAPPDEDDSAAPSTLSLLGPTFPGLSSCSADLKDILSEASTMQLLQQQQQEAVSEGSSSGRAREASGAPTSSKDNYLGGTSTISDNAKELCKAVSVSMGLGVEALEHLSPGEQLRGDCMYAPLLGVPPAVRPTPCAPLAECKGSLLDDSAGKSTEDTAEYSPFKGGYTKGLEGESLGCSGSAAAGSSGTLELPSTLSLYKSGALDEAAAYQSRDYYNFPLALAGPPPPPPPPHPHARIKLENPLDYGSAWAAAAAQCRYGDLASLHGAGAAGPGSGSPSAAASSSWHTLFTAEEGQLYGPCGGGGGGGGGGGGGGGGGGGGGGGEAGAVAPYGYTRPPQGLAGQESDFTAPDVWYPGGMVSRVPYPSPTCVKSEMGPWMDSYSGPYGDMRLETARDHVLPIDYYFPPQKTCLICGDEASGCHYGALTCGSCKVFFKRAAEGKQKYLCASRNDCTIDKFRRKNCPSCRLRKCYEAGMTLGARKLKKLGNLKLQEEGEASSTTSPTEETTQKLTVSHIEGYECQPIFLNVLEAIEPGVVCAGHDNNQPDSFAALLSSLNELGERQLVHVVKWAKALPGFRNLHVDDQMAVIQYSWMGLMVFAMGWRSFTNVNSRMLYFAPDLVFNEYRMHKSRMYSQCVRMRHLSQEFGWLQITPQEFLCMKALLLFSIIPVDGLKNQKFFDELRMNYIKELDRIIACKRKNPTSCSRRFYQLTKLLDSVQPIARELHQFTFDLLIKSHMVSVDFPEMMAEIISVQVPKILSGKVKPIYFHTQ
# Description: Binding affinity determined against human Androgen receptor
# [5] = molecular target: T4, Progesterone receptor (Homo sapiens) (UniProt P06401); conditions: CV-1
# T4 sequence (whole entry): T2 sequence (P06401 whole entry)
# Progesterone receptor [6] = molecular target: T2, Progesterone receptor; remark: listed apart in the source
# Progesterone receptor [7] = molecular target: T2, Progesterone receptor; remark: listed apart in the source
# Progesterone receptor [8] = molecular target: T2, Progesterone receptor; remark: listed apart in the source
# [9] = molecular target: T4, Progesterone receptor (Homo sapiens); conditions: CV-1; remark: listed apart in the source
# Glucocorticoid receptor [10] = molecular target: T1, Glucocorticoid receptor; experiment: Inhibitory activity against human glucocorticoid receptor (hGR)
# Estrogen receptor = Estrogen receptor (Homo sapiens, UniProt Q92731+P03372)
# Description: Inhibitory activity against human estrogen receptor
# Androgen receptor [11] = molecular target: T3, Androgen receptor; remark: listed apart in the source
# Description: Inhibitory activity against human Androgen receptor
Ki (Glucocorticoid receptor [1]),Ki (Progesterone receptor [2]),IC50 (Progesterone receptor [3]),Ki (Androgen receptor [4]),Max inhibition [5],IC50 (Progesterone receptor [6]),EC50 (Progesterone receptor [7]),Max inhibition [9],SMILES,EC50 (Progesterone receptor [8]),IC50 (Glucocorticoid receptor [10]),IC50 (Estrogen receptor),IC50 (Androgen receptor [11])
2780 nM,156 nM,280 nM,1520 nM,71%,783 nM,,,C=C1C=CCC(C)(C)C1Cc1cc(OC)c(Br)cc1O (configuration not stated),,,,
1040 nM,22 nM,> 10000 nM,696 nM,< 20%,,,,C=C1C[C@H](C)CC(C)(C)[C@@H]1Cc1cc(OC)c(Br)cc1O,458 nM,,,
2200 nM,59.6 nM,770 nM,1940 nM,42%,710 nM,1460 nM,,C=C1C=C(C)CC(C)(C)C1Cc1cc(OC)c(Br)cc1OC(C)=O (configuration not stated),,,,
4530 nM,441 nM,250 nM,1920 nM,98%,1200 nM,,,C=C1CCC(C)(C)C1Cc1cc(OC)c(Br)cc1O (configuration not stated),,,,
1260 nM,,,1450 nM,37%,,,,C=C1C=C(C)CC(C)(C)C1Cc1cc(OC)c(Br)cc1O (configuration not stated),,,,
4110 nM,455 nM,210 nM,6390 nM,83%,660 nM,,,C=C1C(C)=CCC(C)(C)[C@@H]1Cc1cc(OC)c(Br)cc1OC(C)=O,,,,
2210 nM,77 nM,163 nM,,55%,405 nM,4020 nM,,C=C1CCCC(C)(C)C1Cc1cc(OC)c(Br)cc1O (configuration not stated),,,,
8220 nM,,,> 10000 nM,44%,,,,C=C1C=C(C)CC(C)(C)C1Sc1ccc([N+](=O)[O-])cc1 (configuration not stated),,,,
8360 nM,88 nM,775 nM,> 10000 nM,72%,1950 nM,,,C=C1C=C(C)CC(C)(C)C1Cc1ccc2nonc2c1 (configuration not stated),,,,
2670 nM,,,1590 nM,66%,,,,C=C1C=C(C)C(Cc2cc(OC)c(Br)cc2O)C(C)(C)C1 (configuration not stated),,,,
8510 nM,,,6450 nM,87%,,,,C=C1C=C(C)CC(C)(C)C1(O)Cc1ccc([N+](=O)[O-])cc1 (configuration not stated),,,,
10000 nM (not active),> 10000 nM,,10000 nM (not active),93%,2440 nM,,,CCOC1=CC(=O)C(Cc2ccc([N+](=O)[O-])cc2)C(C)(C)C1 (configuration not stated),,,,
6810 nM,28.8 nM,510 nM,2700 nM,85%,1800 nM,,,C=C1C=C(C)CC(C)(C)C1Cc1ccc([N+](=O)[O-])c(C)c1 (configuration not stated),,,,

# Continued, molecule first:
SMILES,Ki (Glucocorticoid receptor [1]),Ki (Progesterone receptor [2]),IC50 (Progesterone receptor [3]),Ki (Androgen receptor [4]),Max inhibition [5],IC50 (Progesterone receptor [6]),EC50 (Progesterone receptor [7]),Max inhibition [9],EC50 (Progesterone receptor [8]),IC50 (Glucocorticoid receptor [10]),IC50 (Estrogen receptor),IC50 (Androgen receptor [11])
C=C1CCCC(C)(C)[C@@H]1Cc1cc(OC)c(Br)cc1O,1780 nM,34 nM,290 nM,,45%,597 nM,3260 nM,,,,,
C=C1C=C(C)C[C@@H](C)[C@@H]1Cc1cc(OC)c(Br)cc1OC(C)=O,2380 nM,21 nM,147 nM,1500 nM,52%,350 nM,3010 nM,,,,,
C=C1C[C@H](C)C[C@@H](C)[C@@H]1Cc1cc(OC)c(Br)cc1O,1660 nM,84 nM,350 nM,1140 nM,63%,985 nM,,,,,,
C=C1[C@@H](Cc2cc(OC)c(Br)cc2O)C(C)(C)CC[C@@]1(C)O,> 10000 nM,275 nM,430 nM,6660 nM,78%,2000 nM,,,,,,
C=C1CCC[C@@H](C)[C@@H]1Cc1cc(OC)c(Br)cc1O,2290 nM,69 nM,200 nM,570 nM,62%,320 nM,3010 nM,,,,,
C=C1C[C@H](CO)CC(C)(C)[C@@H]1Cc1cc(OC)c(Br)cc1O,6390 nM,3250 nM,2000 nM,6810 nM,87%,3300 nM,,87%,,,,
C=C1[C@H](O)CCC(C)(C)[C@@H]1Cc1cc(OC)c(Br)cc1O,> 10000 nM,10000 nM (not active),1700 nM,10000 nM (not active),73%,3400 nM,,,,,,
C=C1CCC[C@H](C)[C@H]1Cc1cc(OC)c(Br)cc1O,3700 nM,71 nM,300 nM,1640 nM,93%,1050 nM,,,,,,
COc1cc(CC2C(C)(C)CC(C)=CC23CC3)c(OC(C)=O)cc1Br (configuration not stated),2570 nM,98 nM,440 nM,3010 nM,26%,160 nM,2120 nM,,,,,
C=C1CC[C@@H](Br)C(C)(C)[C@@H]1Cc1cc(OC)c(Br)cc1O,2470 nM,343 nM,3500 nM,,< 20%,,,,35 nM,> 10000 nM,> 10000 nM,238 nM

# Reference: ChEMBL document CHEMBL1129561 (J Med Chem, 1996)
